Assays:
GC receptor = target: T1, GC receptor (Homo sapiens, UniProt P04150); conditions: GC receptor-binding (Tajika 2011b); cited from earlier work
T1 sequence (P04150 1-777): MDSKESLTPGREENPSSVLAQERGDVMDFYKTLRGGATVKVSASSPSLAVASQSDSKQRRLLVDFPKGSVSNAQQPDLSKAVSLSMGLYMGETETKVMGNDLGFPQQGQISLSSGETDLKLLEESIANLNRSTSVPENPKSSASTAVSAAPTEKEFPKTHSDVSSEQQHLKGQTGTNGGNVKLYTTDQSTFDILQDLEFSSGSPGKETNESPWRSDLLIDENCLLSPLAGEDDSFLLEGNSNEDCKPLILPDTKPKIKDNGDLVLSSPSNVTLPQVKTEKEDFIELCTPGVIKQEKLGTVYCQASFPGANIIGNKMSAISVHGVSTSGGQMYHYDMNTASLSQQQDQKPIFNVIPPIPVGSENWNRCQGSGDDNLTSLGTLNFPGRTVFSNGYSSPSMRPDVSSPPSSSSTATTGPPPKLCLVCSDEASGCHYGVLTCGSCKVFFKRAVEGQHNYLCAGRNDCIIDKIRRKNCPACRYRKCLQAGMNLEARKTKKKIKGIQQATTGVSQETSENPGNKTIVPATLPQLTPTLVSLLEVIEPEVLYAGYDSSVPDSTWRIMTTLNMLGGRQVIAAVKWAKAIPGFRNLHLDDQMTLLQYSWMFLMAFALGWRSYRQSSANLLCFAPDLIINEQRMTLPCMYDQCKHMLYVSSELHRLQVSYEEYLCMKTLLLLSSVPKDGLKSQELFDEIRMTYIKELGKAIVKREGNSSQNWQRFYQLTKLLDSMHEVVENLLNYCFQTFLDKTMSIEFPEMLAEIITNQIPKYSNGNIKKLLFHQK

rabbits = conditions: subcutaneous during organogenesis, cited from earlier work
[1] = Impact of gamma irradiation (46 kGy) on difluprednate assay of implant formulations; format: physicochemical
Experimental: Terminal moist heat sterilization is not a viable method due to the fact that ENV905 is a solid dosage form designed to disintegrate in aqueous environments. Therefore, studies to evaluate gamma irradiation were conducted on early ENV905 formulations to determine if ionizing radiation was a viable option for a terminally sterilized drug product. ENV905 implants were exposed to gamma irradiation with a dose of 46 kGy per ISO 11137-2:2012 (Sterilization of Health Care Products—Radiation—Part 2: Establishing the Sterilization Dose). The implant formulations used for these studies consisted of a blend of difluprednate and PEGs.
Implants were individually packaged in HPLC vials with air headspace and polytetrafluoroethylene (PTFE)-lined screw caps. Ten individual implants (n=10) were tested for difluprednate assay.

rodents and non-rodents = conditions: consistent between species; cited from earlier work
CHL/IU = conditions: cited from earlier work
male and female rats = conditions: subcutaneous up to 10 μg/kg/day prior to and during mating; cited from earlier work
Ames test = conditions: cited from earlier work
mice = conditions: cited from earlier work

Compound | Ki (GC receptor) | embryotoxicity and teratogenicity (rabbits; 1-10 μg/kg/day) | NOEL for embryotoxic and teratogenic effects (rabbits) | teratogenic dose (rabbits) | Degradation ([1]; Radiation Dose 46 kGy) | Difluprednate Assay ([1]; Radiation Dose 46 kGy) | Difluprednate Assay ([1]; Radiation Dose None) | no-observed-effect-level (NOEL), subchronic and chronic toxicity tests (rodents and non-rodents) | genotoxicity in cultured mammalian cells CHL/IU (CHL/IU) | fertility (male and female rats) | genotoxicity in vitro in the Ames test (Ames test) | in vivo micronucleus test (mice)
CCCC(=O)O[C@]1(C(=O)CO)CC[C@H]2[C@@H]3C[C@H](F)C4=CC(=O)C=C[C@]4(C)[C@@]3(F)[C@@H](O)C[C@@]21C [Desacetyl Difluprednate (DFB), 6α,9-difluoroprednisolone 17-butyrate] | 0.061 nM |  |  |  |  |  |  |  |  |  |  | 
CCCC(=O)O[C@]1(C(=O)COC(C)=O)CC[C@H]2[C@@H]3C[C@H](F)C4=CC(=O)C=C[C@]4(C)[C@@]3(F)[C@@H](O)C[C@@]21C [Difluprednate (DFBA), Difluprednate] | 0.78 nM | embryotoxic (decrease in embryonic body weight and a delay in embryonic ossification) and teratogenic (cleft palate and skeletal anomalies) | 1 µg/kg/day | 10 µg/kg/day | 0.85 % Area | 97.13 % Area | 97.98 % Area | 1 to 1.25 µg/kg/day | not genotoxic | did not impair fertility in either gender | not genotoxic | negative
